In patent publication US9464326B2, “Total and phosphorylated IL-1 receptor-associated kinase-1 and IL-1 receptor-associated kinase-4 as a biomarker for cancer progression and chemotherapy resistance” (University of Maryland, Baltimore, priority 2012, dated 2016):

Test system: CCRF-CEM cells
Assay: Cell number and apoptosis assays
Type: cell-based, human
Settings: IRAK-1,-4 inhibitor 0-20 μM plus titrated drug, apoptosis by 7AAD at 48 hours, FIG. 23
Procedure: TLR ligands were diluted 2-fold. Cell lines (25-40×10^3/well) were cultured for 54 hours, whereas fresh patient-derived T-ALL cells (200×10^3/well) were cultured for 30 hours prior to adding [^3H]-thymidine for 18 hours. After this time point, cells were harvested with a Packard Filter-Mate-96 cell harvester (Perkin Elmer, Waltham, Mass., USA) and counted on Packard Top Count-NXT (Perkin Elmer, Waltham, Mass., USA). Results were expressed as average counts per minute (cpm). In some experiments CCRF-CEM cells were pre-treated with TLR1-TLR2 ligand (Pam3CysK4; 2.5 ug/ml) for 48 hrs, washed, and then cultured in the presence of varying concentrations of FBS. Forty-eight hours later, proliferation (±SD) was determined by ^3H-thymidine incorporation. Alternatively, apoptosis was measured by flow cytometry after staining cells with Annexin-V (BD Pharmingen, San Diego, Calif., USA) and propidium iodide (Sigma). Cell number was counted under microscopy by staining cells with trypan blue.
CCRF-CEM cells were treated with IRAK-1,-4 inhibitor for 24, 48, 72, and 96 hours.
The T-ALL cell line CCRF-CEM was cultured in the presence of 0, 1.2, 5, 10, and 20 μM IRAK-1,-4 inhibitor. (FIG. 23). To each concentration of IRAK-1,-4 inhibitor titrating doses of ABT-737 (1000→15 nM) vincristine, VS (10→0.1 nM), and paclitaxol, PAC (100→1.5 nM). […] Apoptosis was measure 48 hours later by staining cells with 7AAD and analyzed by flow cytometry.

Row | SMILES | synergy with IRAK-1,-4 inhibitor
1 | CC[C@]1(O)C[C@H]2CN(CCc3c([nH]c4ccccc34)[C@@](C(=O)OC)(c3cc4c(cc3OC)N(C=O)[C@H]3[C@@](O)(C(=O)OC)[C@H](OC(C)=O)[C@]5(CC)C=CCN6CC[C@]43[C@@H]65)C2)C1 [vincristine] | synergy
2 | CC(=O)O[C@H]1C(=O)[C@@]2(C)[C@H]([C@H](OC(=O)c3ccccc3)[C@]3(O)C[C@H](OC(=O)[C@H](O)[C@@H](NC(=O)c4ccccc4)c4ccccc4)C(C)=C1C3(C)C)[C@]1(OC(C)=O)CO[C@@H]1C[C@@H]2O [paclitaxel] | synergy
